± gives the uncertainty stated by the source.
Legend:
MKN-45 [1] = test: % viability under drug (72 h drug + 72 h recovery), miRNA mimic relative to NTC in DMSO; higher = more surviving cells; details: drug used in drug arm: crizotinib 1 uM; treatment: drug
Protocol: (§1)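 26 miRNA mimics were transfected into 8 cancer cell lines in triplicate. 48 h post-transfection, cells were treated 72 h with DMSO or a line-specific drug, then recovered 72 h drug-free. Drugs: COLO-205 AZ628 1 uM, MKN-45 crizotinib 1 uM, NCI-H596 paclitaxel 6 uM, EVSA-T GDC-0980 2.5 uM, M14 AZ628 1 uM, HCC-1954 GDC-0980 2.5 uM, NCI-H441 carboplatin 2.5 uM, SKBr3 lapatinib 1 uM. Surviving cells are expressed as % of NTC-transfected cells in DMSO (the NTC drug arm itself is about 30-50%), mean +- SEM.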

M14 [2] = test: as above; details: drug used in drug arm: AZ628 1 uM; treatment: drug
Protocol: as §1

NCI-H441 [3] = test: as above; details: drug used in drug arm: carboplatin 2.5 uM; treatment: drug
Protocol: as §1

EVSA-T [4] = test: as above; details: drug used in drug arm: GDC-0980 2.5 uM; treatment: drug
Protocol: as §1

COLO-205 [5] = test: as above; details: drug used in drug arm: AZ628 1 uM; treatment: drug
Protocol: as §1

HCC-1954 [6] = test: as above; details: drug used in drug arm: GDC-0980 2.5 uM; treatment: drug
Protocol: as §1

NCI-H596 [7] = test: as above; details: drug used in drug arm: paclitaxel 6 uM; treatment: drug
Protocol: as §1

SK-BR-3 [8] = test: as above; details: drug used in drug arm: lapatinib 1 uM; treatment: drug
Protocol: as §1

MKN-45 [9] = test: % viability in DMSO, miRNA mimic relative to NTC in DMSO; higher = less cytotoxic; details: drug used in drug arm: crizotinib 1 uM; treatment: DMSO
Protocol: as §1

M14 [10] = test: as above; details: drug used in drug arm: AZ628 1 uM; treatment: DMSO
Protocol: as §1

NCI-H441 [11] = test: as above; details: drug used in drug arm: carboplatin 2.5 uM; treatment: DMSO
Protocol: as §1

EVSA-T [12] = test: as above; details: drug used in drug arm: GDC-0980 2.5 uM; treatment: DMSO
Protocol: as §1

COLO-205 [13] = test: as above; details: drug used in drug arm: AZ628 1 uM; treatment: DMSO
Protocol: as §1

HCC-1954 [14] = test: as above; details: drug used in drug arm: GDC-0980 2.5 uM; treatment: DMSO
Protocol: as §1

NCI-H596 [15] = test: as above; details: drug used in drug arm: paclitaxel 6 uM; treatment: DMSO
Protocol: as §1

SK-BR-3 [16] = test: as above; details: drug used in drug arm: lapatinib 1 uM; treatment: DMSO
Protocol: as §1

PC9 = test: cell count fold change with erlotinib, miRNA mimic vs non-targeting control (log2 ratio); higher = more drug-tolerant survivors than NTC; details: erlotinib 1 µM; 72 h drug + 72 h drug-free recovery; perturbation: miRNA mimic

Sequence	% viability under drug (MKN-45 [1]) [%]	% viability under drug (M14 [2]) [%]	% viability under drug (NCI-H441 [3]) [%]	% viability under drug (EVSA-T [4]) [%]	% viability under drug (COLO-205 [5]) [%]	% viability under drug (HCC-1954 [6]) [%]	% viability under drug (NCI-H596 [7]) [%]	% viability under drug (SK-BR-3 [8]) [%]	% viability in DMSO (MKN-45 [9]) [%]	% viability in DMSO (M14 [10]) [%]	% viability in DMSO (NCI-H441 [11]) [%]	% viability in DMSO (EVSA-T [12]) [%]	% viability in DMSO (COLO-205 [13]) [%]	% viability in DMSO (HCC-1954 [14]) [%]	% viability in DMSO (NCI-H596 [15]) [%]	% viability in DMSO (SK-BR-3 [16]) [%]	cell count fold change with erlotinib (PC9)
GUCAUACACGGCUCUCCUCUCU	0.526 ± 0.15	1.73 ± 0.53	3.92 ± 0.51	0.124 ± 0.028	33 ± 2.9	1.04 ± 0.13	0.466 ± 0.077	12.8 ± 1.4	10.5 ± 0.39	15.5 ± 2.3	8.42 ± 0.15	3.87 ± 1.8	106 ± 3.9	29.6 ± 4.2	9.78 ± 0.74	17.1 ± 4.5	-5.7
UAGGUAGUUUCAUGUUGUUGGG	1.52 ± 0.25	6.29 ± 0.61	6.39 ± 0.21	0.1635 ± 0.0015	34.7 ± 0.96	1.26 ± 0.1	1.48 ± 0.34	16.1 ± 2.1	49.8 ± 27	69.5 ± 28	23.3 ± 13	11.4 ± 8.3	93.2 ± 4.5	57.1 ± 7.2	18.4 ± 2.9	39.6 ± 14	-5.25
UCUACAAAGGAAAGCGCUUUCU	1.63 ± 0.29	6.38 ± 0.2	12.8 ± 1.1	1.13 ± 0.19	47.79 ± 0.091	2.02 ± 0.14	2.12 ± 0.19	26 ± 2.1	48.8 ± 8.7	63 ± 19	41.8 ± 3.1	37.4 ± 6.7	109 ± 3.9	68.8 ± 1.8	80.5 ± 9.8	49.1 ± 3.5	0.22
UGUCAGUUUGUCAAAUACCCCA	2.37 ± 0.29	16.4 ± 2.8	5.55 ± 0.62	0.172 ± 0.0035	38 ± 0.5	0.617 ± 0.0095	0.42 ± 0.093	27.4 ± 1.9	142 ± 23	129 ± 10	27.3 ± 6.4	28 ± 2.1	98.3 ± 4.3	31.9 ± 3.4	22.8 ± 1.2	104 ± 12	-5.21

Reference: the supplement of paper PMC4976141
